Reference: patent publication US12540134B2, “Inhibitors of adrenoreceptor ADRAC2” (Bayer Aktiengesellschaft, priority 2019, dated 2026)

Target: T1, human ADRA2C receptor (Homo sapiens (Human), UniProt P18825)
Test: In vitro radioligand binding study, competition assay with [3H] rauwolscine (Eurofins Panlabs)
Conditions: calculated from IC50 and Kd with the Cheng Prusoff equation; [3H] rauwolscine competition; read-out: hARα2C Ki
Method: B-1 In Vitro Radioligand Binding Studies for Determination of the Dissociation Constants Ki at the Human Adrenoreceptor ADRA2C (Eurojins Panlabs Discovery Services, Taiwan, Ltd)
A competition assay based on [^3H] rauwolscine as radioliganden was used to determine the binding affinity of the test substances at the human ADRA2C receptor.
To configure the competition assay, the equilibrium dissociation constant Kd of the radioligand [^3H] rauwolscine was determined in a saturation experiment. To this end, homogenates of CHO-K1 cells recombinantly expressing the human ADRA2C receptor were incubated with increasing concentrations of the radiotracers for 1 h at 4° C. in binding buffer (50 mM Tris-HCl, 1 mM EDTA, pH 7.4). Unspecific binding was determined by addition of an excess of the not radioactively labelled ligand prazosin (10 μM). The radioactivity was determined in a scintiation counter.
The competition experiments were carried out in the presence of 0.5 nM [^3H] rauwolscine and increasing concentrations of the test substances to be characterized under the conditions described above.
From the IC50 value measured in the competition experiment and the Kd value from the saturation experiment, the equilibrium constant Ki of the inhibitor, which describes the affinity of the test substances to the receptor, was calculated using the Cheng Prusoff equation [Cheng Y, Prusoff W H. Relationship between the inhibition constant (Ki) and the concentration of inhibitor which causes 50 percent inhibition (ISO) of an enzymatic reaction. […] PMID 4202581 PMID: 4202581].

T1 sequence (P18825 whole entry): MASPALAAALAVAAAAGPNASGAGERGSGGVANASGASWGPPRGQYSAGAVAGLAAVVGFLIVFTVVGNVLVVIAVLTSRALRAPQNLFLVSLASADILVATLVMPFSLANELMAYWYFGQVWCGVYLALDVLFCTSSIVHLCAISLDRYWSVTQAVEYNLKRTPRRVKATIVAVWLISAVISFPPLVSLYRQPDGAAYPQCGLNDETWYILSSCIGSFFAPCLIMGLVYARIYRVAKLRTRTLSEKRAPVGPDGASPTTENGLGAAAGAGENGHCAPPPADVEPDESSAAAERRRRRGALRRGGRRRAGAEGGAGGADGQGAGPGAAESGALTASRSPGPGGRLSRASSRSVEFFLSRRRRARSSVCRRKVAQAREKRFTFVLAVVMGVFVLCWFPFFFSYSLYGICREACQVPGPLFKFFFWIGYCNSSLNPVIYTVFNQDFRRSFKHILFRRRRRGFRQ

Row | Compound | Ki
1 | O=C(NCc1ncc(F)cc1F)c1cnc(N2CCC(N3CCC[C@@H](CF)C3)CC2)s1 [Example 41, N-[(3,5-Difluoropyridin-2-yl)methyl]-2-[(3R)-3-(fluoromethyl)[1,4′-bipiperidin]-1′-yl]-1,3-thiazole-5-carboxamide] | 56 nM
2 | CCOC1CCCN(C2CCN(c3ncc(C(=O)NCc4ncc(F)cc4F)s3)CC2)C1 (single isomer, unassigned) [Example 124, ent-N-[(3,5-Difluoropyridin-2-yl)methyl]-2-(3-ethoxy[1,4′-bipiperidin]-1′-yl)-1,3-thiazole-5-carboxamide] | 2.3 nM
3 | O=C(NCc1ncc(F)cc1F)c1cnc(N2CCC(N3CCCC4(CC4)C3)CC2)s1 [Example 64, 2-[4-(5-Azaspiro[2.5]octan-5-yl)piperidin-1-yl]-N-[(3,5-difluoropyridin-2-yl)methyl]-1,3-thiazole-5-carboxamide] | 2.8 nM
4 | C[C@@H]1CCCN(C2CCN(c3ncc(C(=O)NCc4ncc(F)cc4F)s3)CC2)C1 [Example 1, N-[(3,5-Difluoropyridin-2-yl)methyl]-2-[(3R)-3-methyl[1,4′-bipiperidin]-1′-yl]-1,3-thiazole-5-carboxamide] | 24 nM

Same assay, conditions: displacement of 0.5 nM [3H] rauwolscine; homogenates of CHO-K1 cells expressing human ADRA2C; 1 h, 4° C.; read-out: hARα2C IC50

Row | Compound | IC50
5 | O=C(NCc1ncc(F)cc1F)c1cnc(N2CCC(N3CCC[C@@H](CF)C3)CC2)s1 [Example 41, N-[(3,5-Difluoropyridin-2-yl)methyl]-2-[(3R)-3-(fluoromethyl)[1,4′-bipiperidin]-1′-yl]-1,3-thiazole-5-carboxamide] | 130 nM
6 | CCOC1CCCN(C2CCN(c3ncc(C(=O)NCc4ncc(F)cc4F)s3)CC2)C1 (single isomer, unassigned) [Example 124, ent-N-[(3,5-Difluoropyridin-2-yl)methyl]-2-(3-ethoxy[1,4′-bipiperidin]-1′-yl)-1,3-thiazole-5-carboxamide] | 5.1 nM
7 | O=C(NCc1ncc(F)cc1F)c1cnc(N2CCC(N3CCCC4(CC4)C3)CC2)s1 [Example 64, 2-[4-(5-Azaspiro[2.5]octan-5-yl)piperidin-1-yl]-N-[(3,5-difluoropyridin-2-yl)methyl]-1,3-thiazole-5-carboxamide] | 6.2 nM
8 | C[C@@H]1CCCN(C2CCN(c3ncc(C(=O)NCc4ncc(F)cc4F)s3)CC2)C1 [Example 1, N-[(3,5-Difluoropyridin-2-yl)methyl]-2-[(3R)-3-methyl[1,4′-bipiperidin]-1′-yl]-1,3-thiazole-5-carboxamide] | 54 nM

Target: T1, human ADRA2C receptor
Test: In vitro activity assay, inhibition of recombinant ADRA2C (CHO-K1 cells coexpressing Gαq and aequorin, noradrenaline-induced bioluminescence)
Format: cell-based
Conditions: inhibition of agonist (noradrenaline)-induced bioluminescence signal; some values are means of multiple determinations; read-out: ARα2C IC50
Method: B-2. In Vitro Activity Assay to Determine the Inhibition of Recombinant ADRA2C
The human ADRA2C receptor belongs to the G protein (guanine-dependent protein)-coupled receptors, the main function of which is the transduction of signals into the interior of the cell.
The investigations of the inhibition of the recombinant human ADRA2C receptors were carried out with stably transfected CHO-K1 cells coexpressing the Gαq protein and the calcium-sensitive photoprotein aequorin. In this recombinant system, binding of the agonists noradrenaline to the ADRA2C receptor leads, after activation of a signal cascade, to calcium release from intracellular stores, which is detected by the intracellular calcium sensor aequorin as a bioluminescent signal. The method is described in detail in the reference below. [Wunder F., Kalthof B., Muller T., Hueser J. Functional Cell-Based Assays in Microliter Volumes for Ultra-High Throughput Screening. Combinatorial Chemistry & High Throughput Screening, Volume 11, Number 7, 2008, pp. 495-504(10). doi.org/10.2174/138620708785204054]
The activity of the test substances was determined via their ability to inhibit the agonist-induced increase of the bioluminescence signal. The concentration which can block half of this signal increase is referred to as IC50. The IC50 value is calculated using the 4 parameter logistic function (Hill function):
Top=upper threshold, Bottom=lower threshold, Slope=slope, IC50=turning point

Row | Compound | IC50
9 | O=C(NCc1ncc(F)cc1F)c1cnc(N2CCC(N3CCCC(C4CC4)C3)CC2)s1 (racemic) [Example 137, 2-(3-cyclopropyl[1,4′-bipiperidin]-1′-yl)-N-[(3,5-difluoropyridin-2-yl)methyl]-1,3-thiazole-5-carboxamide] | 19 nM
10 | C[C@@H]1CCCN(C2CCN(c3ncc(C(=O)NC[C@H](C)c4ccccc4)s3)CC2)C1 (relative stereo) [Example 83, rel-2-[(3R)-3-methyl[1,4′-bipiperidin]-1′-yl]-N-[(2R)-2-phenylpropyl]-1,3-thiazole-5-carboxamide] | 98.1 nM
11 | O=C(NCc1ncc(F)cc1F)c1cnc(N2CCC(N3CCCC(C4CCC4)C3)CC2)s1 (racemic) [Example 138, 2-(3-cyclobutyl[1,4′-bipiperidin]-1′-yl)-N-[(3,5-difluoropyridin-2-yl)methyl]-1,3-thiazole-5-carboxamide] | 6.5 nM
12 | C[C@@H]1CCCN(C2CCN(c3nc(C(=O)NCc4ncc(F)cc4F)co3)CC2F)C1 (single isomer, unassigned) [Example 159] | 25 nM
13 | O=C(NCc1ncc(F)cc1F)c1cnc(N2CCC(N3CCC[C@@H](C(F)(F)F)C3)CC2)s1 [Example 43, N-[(3,5-Difluoropyridin-2-yl)methyl]-2-[(3R)-3-(trifluoromethyl)[1,4′-bipiperidin]-1′-yl]-1,3-thiazole-5-carboxamide] | 261 nM
14 | CCC1CN(c2ncc(C(=O)NCc3ncc(F)cc3F)s2)CCC1N1CCC[C@@H](C)C1 (single isomer, unassigned) [Example 162] | 810 nM
15 | CC1CN(c2ncc(C(=O)NCc3ncc(F)cc3F)s2)CCC1N1CCC[C@@H](C)C1 (single isomer, unassigned) [Example 165] | 410 nM
16 | CCC1CN(c2ncc(C(=O)NCc3ncc(F)cc3F)s2)CCC1N1CCC[C@@H](C)C1 (single isomer, unassigned) [Example 163] | 480 nM
17 | CC(NC(=O)c1cnc(N2CCC(N3CCC[C@@H](C)C3)CC2)s1)c1cc(F)ccc1F (stereo partly drawn) [Example 47, N-[1-(2,5-Difluorophenyl)ethyl]-2-[(3R)-3-methyl[1,4′-bipiperidin]-1′-yl]-1,3-thiazole carboxamide] | 25 nM
18 | COCCC1CCCN(C2CCN(c3ncc(C(=O)NCc4ncc(F)cc4F)s3)CC2)C1 (racemic) [Example 148, N-[(3,5-difluoropyridin-2-yl)methyl]-2-[3-(2-methoxyethyl)[1,4′-bipiperidin]-1′-yl]-1,3-thiazole-5-carboxamide] | 1.3 nM
19 | CC(C)(C)C1CCCN(C2CCN(c3ncc(C(=O)NCc4ncc(F)cc4F)s3)CC2)C1 (racemic) [Example 149, 2-(3-tert-butyl[1,4′-bipiperidin]-1′-yl)-N-[(3,5-difluoropyridin-2-yl)methyl]-1,3-thiazole-5-carboxamide] | 35 nM
20 | CC1CN(c2ncc(C(=O)NCc3ncc(F)cc3F)s2)CCC1N1CCC[C@@H](C)C1 (single isomer, unassigned) [Example 164] | 24 nM
21 | C[C@@H]1CCCN(C2CCN(c3ncc(C(=O)N(C)Cc4cccnc4)s3)CC2)C1 [Example 90, N-methyl-2-[(3R)-3-methyl[1,4′-bipiperidin]-1′-yl]-N-(pyridin-3-ylmethyl)-1,3-thiazole-5-carboxamide] | 971 nM
22 | C[C@@H]1CCCN(C2CCN(c3nnc(C(=O)NCc4ncc(F)cc4F)s3)CC2)C1 [Example 152, N-[(3,5-difluoropyridin-2-yl)methyl]-5-[(3R)-3-methyl[1,4′-bipiperidin]-1′-yl]-1,3,4-thiadiazole-2-carboxamide] | 660 nM
23 | C[C@@H]1CCCN(C2CCN(c3nc(C(=O)NCc4ncc(F)cc4F)cs3)CC2F)C1 (single isomer, unassigned) [Example 157] | 2.7 nM
24 | Cc1ccc([C@@H](C)NC(=O)c2cnc(N3CCC(N4CCC[C@@H](C)C4)CC3)s2)cc1 (relative stereo) [Example 95, rel-2-[(3R)-3-methyl[1,4′-bipiperidin]-1′-yl]-N-[(1R)-1-(4-methylphenyl)ethyl]-1,3-thiazole-5-carboxamide] | 800 nM
25 | C[C@@H]1CCCN(C2CCN(c3nc(C(=O)NCc4ncc(F)cc4F)co3)CC2F)C1 (single isomer, unassigned) [Example 160] | 435 nM
26 | C[C@@H]1CCCN(C2CCN(c3ncc(C(=O)NCc4cc(Cl)ccc4F)s3)CC2F)C1 (mixture of isomers) [Example 113, diamix-N-(5-Chloro-2-fluorobenzyl)-2-[(3R)-3′-fluoro-3-methyl[1,4′-bipiperidin]-1′-yl]-1,3-thiazole-5-carboxamide] | 0.61 nM
27 | CC1CC(N2CCC[C@@H](C)C2)CCN1c1ncc(C(=O)NCc2ncc(F)cc2F)s1 (single isomer, unassigned) [Example 161] | 233 nM
28 | C[C@@H]1CCCN(C2CCN(c3nc(C(=O)NCc4ncc(F)cc4F)cs3)CC2F)C1 (single isomer, unassigned) [Example 158] | 98 nM
29 | O=C(NCc1ncc(F)cc1F)c1cnc(N2CCCC(N3CCCC4(C3)CC4(F)F)CC2)s1 (stereo not drawn) [Example 156, diamix-2-[4-(1,1-Difluoro-5-azaspiro[2.5]octan-5-yl)azepan-1-yl]-N-[(3,5-difluoropyridin-2-yl)-methyl]-1,3-thiazole-5-carboxamide] | 36 nM
30 | CC(NC(=O)c1cnc(N2CCC(N3CCC[C@@H](C)C3)CC2)s1)c1cc(F)ccc1F (single isomer, unassigned) [Example 46] | 8.3 nM
31 | C[C@@H]1CCCN(C2CCN(c3ncc(C(=O)NCc4cccc(C(F)(F)F)n4)s3)CC2)C1 [Example 32] | 640 nM
32 | O=C(NCc1ncc(F)cc1F)c1cnc(N2CCCC(N3CCCC4(CC4)C3)CC2)s1 (racemic) [Example 153, rac-2-[4-(5-Azaspiro[2.5]octan-5-yl)azepan-1-yl]-N-[(3,5-difluoropyridin-2-yl)methyl]-1,3-thiazole-5-carboxamide] | 23 nM
33 | C[C@@H]1CCCN(C2CCN(c3ncc(C(=O)Nc4ccc(F)cc4Cl)s3)CC2)C1 [Example 88, N-(2-chloro-4-fluorophenyl)-2-[(3R)-3-methyl[1,4′-bipiperidin]-1′-yl]-1,3-thiazole-5-carboxamide] | 489 nM
